For the first experiment, the system named is Ear Edema Caused By Tetradecanoylphorbol Acetate. Kind of experiment: Inhibition of Ear Edema Caused by Tetradecanoylphorbol Acetate (II), Table 7. It is filed as in vivo, CF-1 Mice. The settings on record: i.p., 10 mg/kg; 3 h. On the procedure:
Inhibition of Ear Edema Caused by Tetradecanoylphorbol Acetate (II)
CF-1 Mice, 25-30 g body weight, six animals per group were used. Test compounds were administered intraperitoneally or topically as follows. For intraperitoneal administration, the test compound was dissolved in dimethyl sulfoxide or 0.5% methylcellulose and 100 microliters was injected 30 minutes prior to irritant (100 mg/kg, i.p.). […] A solution of the irritant, tetradecanoylphorbol acetate, 200 μg/mL, was added to the surface of the ear, 5 μL to the upper surface and 5 μL to the lower surface. After three hours, the thickness of the ear was measured to 0.01 mm by a micrometer with loose drag, positioned at the lateral-most edge of the mid-point of the pinna. Data were calculated as the inhibition of increased ear thickness compared to control animals receiving only the irritant.
For `CNC(=O)[C@H](CC(C)C)NC(=O)OCC1c2ccccc2-c2ccccc21` [NPC 15529, N-[(9H-Fluoren-9-ylmethoxy)carbonyl]-L-leucine methylamide], the “% Inhibition Intraperitoneal” value came to 67%.

Turning to `CC(C)(C)[C@H](NC(=O)OCC1c2ccccc2-c2ccccc21)C(=O)O` [NPC 15573, N-[(9H-Fluoren-9-ylmethoxy)carbonyl]-L-tert-leucine], the “% Inhibition Intraperitoneal” value turned out to be 39%.

Still in this experiment, the particulars now being: i.p., 30 mg/kg; 3 h.
As to `CNC(=O)[C@H](CC(C)C)NC(=O)OCC1c2ccccc2-c2ccccc21` [NPC 15529, N-[(9H-Fluoren-9-ylmethoxy)carbonyl]-L-leucine methylamide], the “% Inhibition Intraperitoneal” value is 67%.

`CC(C)(C)[C@H](NC(=O)OCC1c2ccccc2-c2ccccc21)C(=O)O` [NPC 15573, N-[(9H-Fluoren-9-ylmethoxy)carbonyl]-L-tert-leucine]: the “% Inhibition Intraperitoneal” value came to 52%.

The same experiment, now with this note: i.p., 100 mg/kg; 3 h.
As to `CNC(=O)[C@H](CC(C)C)NC(=O)OCC1c2ccccc2-c2ccccc21` [NPC 15529, N-[(9H-Fluoren-9-ylmethoxy)carbonyl]-L-leucine methylamide], the “% Inhibition Intraperitoneal” value stood at 78%.

Regarding `CC(C)(C)[C@H](NC(=O)OCC1c2ccccc2-c2ccccc21)C(=O)O` [NPC 15573, N-[(9H-Fluoren-9-ylmethoxy)carbonyl]-L-tert-leucine], the “% Inhibition Intraperitoneal” value is on record as 75%.

The same experiment, now with this note: topical, dose 10 (mg/kg); 3 h.
Turning to `CC(C)(C)[C@H](NC(=O)OCC1c2ccccc2-c2ccccc21)C(=O)O` [NPC 15573, N-[(9H-Fluoren-9-ylmethoxy)carbonyl]-L-tert-leucine], the “% Inhibition, topical” value is 20%.

The same experiment, now with this note: topical, dose 30 (mg/kg); 3 h.
With `CC(C)(C)[C@H](NC(=O)OCC1c2ccccc2-c2ccccc21)C(=O)O` [NPC 15573, N-[(9H-Fluoren-9-ylmethoxy)carbonyl]-L-tert-leucine], the “% Inhibition, topical” value was 31%.

The experiment is the same for the next values; noted with them: topical, dose 100 (mg/kg); 3 h.
For the compound `CC(C)(C)[C@H](NC(=O)OCC1c2ccccc2-c2ccccc21)C(=O)O` [NPC 15573, N-[(9H-Fluoren-9-ylmethoxy)carbonyl]-L-tert-leucine], the “% Inhibition, topical” value is 38%.

The next experiment concerns Ear Edema Caused by Arachidonic Acid. Kind of experiment: Inhibition of Ear Edema Caused by Arachidonic Acid (II), Table 8. It is filed as in vivo, CF-1 mice. As to conditions: i.p., 10 mg/kg; sixty minutes. On the procedure: Inhibition of Ear Edema Caused by Arachidonic Acid (II)
CF-1 mice, 25-30 g body weight, six animals per group, were used. The requisite amount of the test compound was dissolved is dimethyl sulfoxide or 0.5% methylcellulose and 100 μL of the solution was injected intraperitoneally 30 minutes prior to the administration of 100 mg/kg of arachidponic acid. A solution of this irritant, b 100 mg/mL in ethanol, was applied to the surface of the ear, 5 μL to the upper surface and 5 μL to the lower surface. After sixty minutes, the thickness of the ear was measured to 0.01 mm by a micrometer with the loose drag positioned at the lateral-most edge of the mid-point of the pinna. Data were calculated as the percent inhibityion by the test compound of increased ear thickness compared to control animals recieveing only the irritant.
With `CNC(=O)[C@H](CC(C)C)NC(=O)OCC1c2ccccc2-c2ccccc21` [NPC 15529, N-[(9H-Fluoren-9-ylmethoxy)carbonyl]-L-leucine methylamide], the “% Inhibition Intraperitoneal” value is 16%.

`CC(C)(C)[C@H](NC(=O)OCC1c2ccccc2-c2ccccc21)C(=O)O` [NPC 15573, N-[(9H-Fluoren-9-ylmethoxy)carbonyl]-L-tert-leucine]: the “% Inhibition Intraperitoneal” value was found to be 27%.

Staying with this experiment, now noted: i.p., 30 mg/kg; sixty minutes.
On to `CNC(=O)[C@H](CC(C)C)NC(=O)OCC1c2ccccc2-c2ccccc21` [NPC 15529, N-[(9H-Fluoren-9-ylmethoxy)carbonyl]-L-leucine methylamide], for which the “% Inhibition Intraperitoneal” value amounted to 32%.

For `CC(C)(C)[C@H](NC(=O)OCC1c2ccccc2-c2ccccc21)C(=O)O` [NPC 15573, N-[(9H-Fluoren-9-ylmethoxy)carbonyl]-L-tert-leucine], the “% Inhibition Intraperitoneal” value stood at 32%.

Still in this experiment, the particulars now being: i.p., 100 mg/kg; sixty minutes.
Take `CNC(=O)[C@H](CC(C)C)NC(=O)OCC1c2ccccc2-c2ccccc21` [NPC 15529, N-[(9H-Fluoren-9-ylmethoxy)carbonyl]-L-leucine methylamide]: the “% Inhibition Intraperitoneal” value came to 29%.

For `CC(C)(C)[C@H](NC(=O)OCC1c2ccccc2-c2ccccc21)C(=O)O` [NPC 15573, N-[(9H-Fluoren-9-ylmethoxy)carbonyl]-L-tert-leucine], the “% Inhibition Intraperitoneal” value is recorded as 42%.

The test system of a further experiment is Ear Edema Caused by Xylene. Kind of experiment: Inhibition of Ear Edema Caused by Xylene (II), Table 9. The format is in vivo, CF-1 mice. As to conditions: i.p., 10 mg/kg; 2 h. The method, then: Inhibition of Ear Edema Caused by Xylene (II)
CF-1 mice, 25-30 g body weight, six animals per group, were used. The requisite amount of the test compound was dissolved is dimethyl sulfoxide or 0.5% methylcellulose and 100 μL of the solution was injected intraperitoneally 30 minutes prior to the administration the irritant. The irritant xylene was applied to the surface of the ear, 20 μL to the upper surface and 20 μL to the lower surface, After two hours, the thickness of the ear was measured to 0.01 mm by a micrometer with the loose drag positioned at the lateral-most edge of the mid-point of the pinna. Data were calculated as the percent inhibition by the test compound of increased ear thickness compared to control animals receiving only the irritant.
As to `CNC(=O)[C@H](CC(C)C)NC(=O)OCC1c2ccccc2-c2ccccc21` [NPC 15529, N-[(9H-Fluoren-9-ylmethoxy)carbonyl]-L-leucine methylamide], the “% Inhibition” value came out at 50%.

Take `CC(C)(C)[C@H](NC(=O)OCC1c2ccccc2-c2ccccc21)C(=O)O` [NPC 15573, N-[(9H-Fluoren-9-ylmethoxy)carbonyl]-L-tert-leucine]: the “% Inhibition” value stood at 23%.

The same experiment, now with this note: i.p., 30 mg/kg; 2 h.
With `CNC(=O)[C@H](CC(C)C)NC(=O)OCC1c2ccccc2-c2ccccc21` [NPC 15529, N-[(9H-Fluoren-9-ylmethoxy)carbonyl]-L-leucine methylamide], the “% Inhibition” value was 47%.

With `CC(C)(C)[C@H](NC(=O)OCC1c2ccccc2-c2ccccc21)C(=O)O` [NPC 15573, N-[(9H-Fluoren-9-ylmethoxy)carbonyl]-L-tert-leucine], the “% Inhibition” value was 17%.

The experiment is the same for the next values; noted with them: i.p., 100 mg/kg; 2 h.
On to `CNC(=O)[C@H](CC(C)C)NC(=O)OCC1c2ccccc2-c2ccccc21` [NPC 15529, N-[(9H-Fluoren-9-ylmethoxy)carbonyl]-L-leucine methylamide], for which the “% Inhibition” value was found to be 50%.

The next experiment deals with Ear Edema Caused by Oxazolone. Description: Inhibition of Ear Edema Caused by Oxazolone (II), Table 10. The format is in vivo, CF-1 mice. The settings on record: i.p., 10 mg/kg; 24 h. The method, then:
Inhibition of Ear Edema Caused by Oxazolone (II)
CF-1 mice, 25-30 g body weight, five to six animals per group were used. The mice were sensitized to the irritant two weeks prior to the test by dribbling 100 μL of a 3% solution of oxazolone in acetone onto the abdominal skin of the animal. Test compounds were administered intraperitoneally as follows. […] The irritant, 3% oxazolone in acetone, was added to the surface of the ear, 5 μL added to the upper surface and 5 μL added to the lower surface. After twenty four hours, the thickness of the ear was measured to 0.01 mm by a micrometer with loose drag, positioned at the lateral-most edge of the mid-point of the pinna. Data were calculated as the inhibition of increased ear thickness compared to control animals' receiving only the irritant.
Consider `CNC(=O)[C@H](CC(C)C)NC(=O)OCC1c2ccccc2-c2ccccc21` [NPC 15529, N-[(9H-Fluoren-9-ylmethoxy)carbonyl]-L-leucine methylamide], for which the “% Inhibition Intraperitoneal” value worked out at 32%.

The experiment is the same for the next values; noted with them: i.p., 30 mg/kg; 24 h.
As for `CNC(=O)[C@H](CC(C)C)NC(=O)OCC1c2ccccc2-c2ccccc21` [NPC 15529, N-[(9H-Fluoren-9-ylmethoxy)carbonyl]-L-leucine methylamide], the “% Inhibition Intraperitoneal” value amounted to 41%.

On to `CC(C)(C)[C@H](NC(=O)OCC1c2ccccc2-c2ccccc21)C(=O)O` [NPC 15573, N-[(9H-Fluoren-9-ylmethoxy)carbonyl]-L-tert-leucine], for which the “% Inhibition Intraperitoneal” value is 28%.

Still in this experiment, the particulars now being: i.p., 100 mg/kg; 24 h.
Regarding `CNC(=O)[C@H](CC(C)C)NC(=O)OCC1c2ccccc2-c2ccccc21` [NPC 15529, N-[(9H-Fluoren-9-ylmethoxy)carbonyl]-L-leucine methylamide], the “% Inhibition Intraperitoneal” value worked out at 76%.

As to `CC(C)(C)[C@H](NC(=O)OCC1c2ccccc2-c2ccccc21)C(=O)O` [NPC 15573, N-[(9H-Fluoren-9-ylmethoxy)carbonyl]-L-tert-leucine], the “% Inhibition Intraperitoneal” value is listed as 48%.

A further experiment has as its system Reverse Passive Artus Reaction. Description: Reverse Passive Artus Reaction (II), Table 11. The settings on record: inhibition of blueing; i.p., 100 mg/kg. It is filed as in vivo, Male CD rats. On the procedure: Reverse Passive Artus Reaction (II) Male CD rats weighing between 200 and 250 g were used. […] The animals were anesthetized inhalationally with isoflurane and then injected through the penile vein with 1 mL of a solution of 2.5 mg of Evan's blue dye and 5.0 mg of human serum albumin in 1 mL of saline. This treatment was followed immediately by intracutaneous injections of 0.03 mL of anti-human albumin diluted to contain 3.65 mg of antibody at 3 sites along the midline back. Anesthesia was terminated and after three hours, the animals were sacrificed. The skin was removed and the blue stained areas cut out. The skin patches were soaked overnight in stoppered tubes containing 1 mL of 1 N potassium hydroxide at 37° C. Then 9 mL of a mixture of five parts of a 0.6 N phosphoric acid and thirteen parts of acetone were added to the tubes. The tube contents were agitated and centrifuged, and the absorbance measured at 620 nm. The data were calculated as inhibition of blueing by test compound compared to control animals receiving only antigen and antibody.
As to `CNC(=O)[C@H](CC(C)C)NC(=O)OCC1c2ccccc2-c2ccccc21` [NPC 15529, N-[(9H-Fluoren-9-ylmethoxy)carbonyl]-L-leucine methylamide], the “% Inhibition Intraperitoneal” value is recorded as 0%.

For `CC(C)(C)[C@H](NC(=O)OCC1c2ccccc2-c2ccccc21)C(=O)O` [NPC 15573, N-[(9H-Fluoren-9-ylmethoxy)carbonyl]-L-tert-leucine], the “% Inhibition Intraperitoneal” value was 50%.

One may read the % Inhibition as the relative decrease from the control value, in per cent.
